Key:
peritoneal macrophages [1] = test: H2O2 production by purified peritoneal macrophages (homovanillic acid/HRP); assay type: cell-based, rat; details: stimulus PMA 5 ng/ml
Description: The spontaneous or PMA/IFN-γ-triggered release of H2O2 was determined by the same method as described for splenocytes. Macrophage monolayers were incubated for 24 h in CM10 with or without rat IFN-γ (1000 U/ml). Subsequently, cells were washed twice with prewarmed PBS and incubated for 1 h in 1.0 ml PBS containing […] CaCl2, […] MgCl2, […] D-glucose, 1.0 unit HRP, […] homovanillic acid and 5 ng/ml PMA. After termination of the reaction, the amount of oxidised homovanillic acid in the supernatant was determined spectrofluorometrically. The cellular proteins in the wells were solubilized by adding 250 µl 0.5% (w/v) sodium dodecylsulphate in 0.2 N NaOH. The amount of solubilized protein was determined by a modification of the Lowry method (19). The results are expressed as nmoles H2O2 per mg of protein.
(§1) Peritoneal cells were collected from rats by lavage with 10 ml ice-cold saline containing 50 units/ml heparin. Cells were washed twice with CM10 and resuspended in CM10 to a concentration of 2 x 10^6 cells/ml. Total cell counts were obtained with a Bürker hemocytometer and differential counts performed on centrifuge preparations fixed in absolute methanol and stained with Giemsa stain. The peritoneal cell suspension of Lewis rats consisted of 70 ± 3% macrophages, 13 ± 1% lymphocytes, 14 ± 1% granulocytes and 3 ± 1% mast cells (n = 3). […]

peritoneal macrophages [2] = test: Superoxide anion production by purified peritoneal macrophages (SOD-inhibitable ferricytochrome C reduction); assay type: cell-based, rat; details: stimulus PMA 5 ng/ml
Description: as §1, with “3). The peritoneal cells of BN rats were composed of 61 ± 2% macrophages, 12 ± 1% lymphocytes, 26 ± 2% granulocytes and 2 ± 1% mast cells (n = 3). Cells were fractionated by culturing them in the wells of a 24-well tissue culture plate at a concentration of 2 x 10^6 cells/ml in CM10.” for “3).”
The pMØ monolayers were incubated for 20 h at 37°C in CM10 and subsequently washed (twice) with Hanks' balanced salt solution (HBSS) without phenol red. […] Each test was run in duplicate and the absorption increase at 550 nm was measured using a Beckmann DU-5 spectrophotometer. ^·O2^- release by splenocytes was determined after Con A activation of 4 x 10^6 cells for 20 h. […]

[3] = system: Con A-activated splenocytes; test: ELISPOT enumeration of IFN-γ and IL-4 producing cells in Con A-stimulated spleen cell cultures with culture supplements; assay type: cell-based, rat
Description: The aseptically removed spleen was gently crushed with the blunt end of a 5-ml syringe plunger and passaged through a fine mesh nylon screen. Erythrocytes were hemolysed by adding cold sterile water for 20 sec. to cell pellets followed by the addition of half the volume of 2.7% saline. The number of cells was determined by use of Türk's solution and cell viability by means of trypan blue exclusion. Cell suspensions in which the viability was less than 85% were excluded from the studies. Splenocytes were washed twice with CM5, adjusted to 4 x 10^6 cells/ml, transferred to a 24-well culture plate (1.0 ml/well) and stimulated with Con A (5 µg/ml) in the presence or absence of various supplements (as indicated in the text) for 40 h at 37°C in a humidified atmosphere containing 5% CO2. Thereafter, non-adherent cells were collected and subjected to ELISPOT analyses as described below.
The ELISPOT assay for detecting single cytokine secreting cells has been detailed previously (17). Briefly, the wells of PVC microplates were coated with monoclonal antibodies specific for rat IFN-γ or rat IL-4. After washing and postcoating, 100 µl suspensions of Con A-activated splenocytes were pipetted into the wells. The cells were allowed the produce cytokines for either 4 h (IFN-γ pc) or 16 h (IL-4 pc). Thereafter, cells were lysed for 10 minutes with ice-cold distilled water. Subsequently, the wells were thoroughly washed with PBS containing 0.05% Tween-20. Spots were detected by the sequential incubation of biotinylated rabbit anti-cytokine antibodies and goat anti-biotin antibodies conjugated to alkaline phosphatase (AP). The AP substrate 5-bromo-4-chloro-3-indolyl phosphate was used to produce blue zones ('spots') that visualised the positions of the individual spot-forming cells (SFC). SFC were enumerated by image analysis using a stereo microscope coupled to a colour video camera and Micro Image software from Olympus Optical Co. The frequency of spontaneously occurring SFC was always less than 1% of the mitogen-induced frequency.

[4] = GSH-mediated decomposition of GSNO in phosphate buffer (absorbance 335 nm, nitrite, nitrate, ammonia); assay type: physicochemical
Description: For each experiment GSNO was prepared freshly. […] Three independent experiments were performed with similar results. […] Nitrite levels were measured by the colorimetric Griess reaction. Two independent experiments were performed which produced similar results.
Nitrate was not detected in the solutions.

[5] = BN normal rats, GSH 2 mM, Con A
[6] = Lewis normal rats, GSH 2 mM, Con A
[7] = excess reducing agent added to cultures, splenocytes from BN or Lewis rats
[8] = normal Lewis rats, GSH 2 mM, no XO/HY, Con A 5 µg/ml (Table 5)
[9] = BN naive rats, NMMA 180 µM added after 20 h Con A + 2 mM GSH, further 20 h
[10] = BN naive rats, NMMA 360 µM added after 20 h Con A + 2 mM GSH, further 20 h
[11] = BN, HgCl2-exposed rats, NMMA 180 µM added after 20 h Con A + 2 mM GSH, further 20 h
[12] = BN, HgCl2-exposed rats, NMMA 360 µM added after 20 h Con A + 2 mM GSH, further 20 h
[13] = Lewis naive rats, NMMA 180 µM added after 20 h Con A + 2 mM GSH, further 20 h
[14] = Lewis naive rats, NMMA 360 µM added after 20 h Con A + 2 mM GSH, further 20 h
[15] = Lewis, HgCl2-exposed rats, NMMA 180 µM added after 20 h Con A + 2 mM GSH, further 20 h
[16] = Lewis, HgCl2-exposed rats, NMMA 360 µM added after 20 h Con A + 2 mM GSH, further 20 h

CCCCCCCCCCCCCC(=O)O[C@@H]1[C@@H](C)[C@@]2(O)[C@@H](C=C(CO)C[C@]3(O)C(=O)C(C)=C[C@@H]23)[C@@H]2C(C)(C)[C@]12OC(C)=O [PMA, phorbol 12-myristate 13-acetate]
ROI H2O2 (nmol/mg protein) (peritoneal macrophages [1]; BN normal rats): 8.7 nmol/mg protein | ROI H2O2 (nmol/mg protein) (peritoneal macrophages [1]; Lewis normal rats): 1.9 nmol/mg protein | ROI ^·O2^- (nmol/mg protein) (peritoneal macrophages [2]; BN normal rats): 388.2 nmol/mg protein | ROI ^·O2^- (nmol/mg protein) (peritoneal macrophages [2]; Lewis normal rats): 62.1 nmol/mg protein

N[C@@H](CCC(=O)N[C@@H](CS)C(=O)NCC(=O)O)C(=O)O [GSH, Glutathione]
IFN-γ pc per 1x10^4 MNC [3, 5]: 98 ± 11 per 1 x 10^4 MNC | IL-4 pc per 2x10^5 MNC [3, 5]: 60 ± 5 per 2 x 10^5 MNC | ratio IFN-γ pc/IL-4 pc [3, 5]: 34 | IFN-γ pc per 1x10^4 MNC [3, 6]: 139 ± 14 per 1 x 10^4 MNC | IL-4 pc per 2x10^5 MNC [3, 6]: 11 ± 3 per 2 x 10^5 MNC | ratio IFN-γ pc/IL-4 pc [3, 6]: 253 | enhancement of the ratio of IFN-γ pc/IL-4 pc [3, 7]: approximately 10 fold | IFN-γ pc per 1x10^4 MNC [3, 8]: 103 ± 23 per 1 x 10^4 MNC | IL-4 pc per 2x10^5 MNC [3, 8]: 6 ± 1 per 2 x 10^5 MNC | ratio IFN-γ pc/IL-4 pc [3, 8]: 343

N[C@@H](CCC(=O)N[C@@H](CSN=O)C(=O)NCC(=O)O)C(=O)O [GSNO, S-nitrosoglutathione]
Nitrate in the solutions ([4]; GSH-triggered decomposition of GSNO): not detected | decomposition of GSNO ([4]; absence of GSH, 0.1 mM, 42 h, room temperature (not shown)): no significant decomposition | major decomposition product ([4]; molar ratios exceeding 20 (Fig. 5)): NH3 | time in which decomposition was almost completed ([4]; ratio of GSH:GSNO of 320 (fig. 3)): ~5 h

CNC(=N)NCCC[C@H](N)C(=O)O [NMMA, N^G-monomethyl-L-arginine]
IFN-γ pc per 1x10^4 MNC [3, 9]: 209 ± 19 per 1x10^4 MNC | IL-4 pc per 2x10^5 MNC [3, 9]: 32 ± 6 per 2x10^5 MNC | ratio pc IFN-γ/IL-4 [3, 9]: 131 | IFN-γ pc per 1x10^4 MNC [3, 10]: 251 ± 14 per 1x10^4 MNC | IL-4 pc per 2x10^5 MNC [3, 10]: 30 ± 2 per 2x10^5 MNC | ratio pc IFN-γ/IL-4 [3, 10]: 167 | IFN-γ pc per 1x10^4 MNC [3, 11]: 71 ± 11 per 1x10^4 MNC | IL-4 pc per 2x10^5 MNC [3, 11]: 54 ± 11 per 2x10^5 MNC | ratio pc IFN-γ/IL-4 [3, 11]: 26 | IFN-γ pc per 1x10^4 MNC [3, 12]: 92 ± 17 per 1x10^4 MNC | IL-4 pc per 2x10^5 MNC [3, 12]: 20 ± 5 per 2x10^5 MNC | ratio pc IFN-γ/IL-4 [3, 12]: 92 | enhancement of the ratio of IFN-γ pc/IL-4 pc ([3]; HgCl2-exposed rats, BN splenocyte cultures): 11 fold | enhancement of the ratio of IFN-γ pc/IL-4 pc ([3]; HgCl2-exposed rats, Lewis splenocyte cultures): 2 fold | IFN-γ pc per 1x10^4 MNC [3, 13]: 175 ± 9 per 1x10^4 MNC | IL-4 pc per 2x10^5 MNC [3, 13]: 14 ± 7 per 2x10^5 MNC | ratio pc IFN-γ/IL-4 [3, 13]: 250 | IFN-γ pc per 1x10^4 MNC [3, 14]: 178 ± 11 per 1x10^4 MNC | IL-4 pc per 2x10^5 MNC [3, 14]: 13 ± 2 per 2x10^5 MNC | ratio pc IFN-γ/IL-4 [3, 14]: 274 | IFN-γ pc per 1x10^4 MNC [3, 15]: 112 ± 5 per 1x10^4 MNC | IL-4 pc per 2x10^5 MNC [3, 15]: 10 ± 5 per 2x10^5 MNC | ratio pc IFN-γ/IL-4 [3, 15]: 224 | IFN-γ pc per 1x10^4 MNC [3, 16]: 135 ± 10 per 1x10^4 MNC | IL-4 pc per 2x10^5 MNC [3, 16]: 8 ± 2 per 2x10^5 MNC | ratio pc IFN-γ/IL-4 [3, 16]: 338 | increase in the ratio of IFN-γ pc/IL-4 pc ([3]; splenocyte cultures of naive BN rats): 4 fold

N[C@@H](CS)C(=O)O [cysteine]
enhancement of the ratio of IFN-γ pc/IL-4 pc [3, 7]: approximately 10 fold

OO [H2O2, hydrogen peroxide]
frequencies of IFN-γ pc and IL-4 pc ([3]; H2O2 up to 100 µM added to cultures (not shown)): did not affect

Source: EP1013272A1, “Manipulation of the activity of a nitric oxide radical production pathway for the treatment of diseases associated with the presence of oxygen free radicals” (Biomedical Primate Research Centre (BPRC), priority 1998, dated 2000)
